test system: rice blast (Pyricularia oryzae); test: not given; assay type: in vivo; conditions: potted rice (variety Karakaze), spraying liquid 300 ppm after spore inoculation, observed 7 days after inoculation, levels 0 to 3

Compound | degree of disease onset
5-fluoro-3,3,4,4-tetramethyl-8b-(1-oxidequinoline-3-yl)-4,8b-dihydro-3H-oxazileno[3,2-a]isoquinoline [Example 198] | 0
CC1(C)Cc2ccccc2C(c2cnc3ccccc3c2)=N1 [Example 6, 3-(3,3-dimethyl-3,4-dihydroisoquinolin-1-yl)quinoline] | 0
CC1(C)Cc2ccccc2C(c2cnc3c(F)cccc3c2)=N1 [Example 7, 3-(3,3-dimethyl-3,4-dihydroisoquinolin-1-yl)-8-fluoroquinoline] | 0
Cc1cccc2cc(C3=NC(C)(C)Cc4ccccc43)cnc12 [Example 9, 3-(3,3-dimethyl-3,4-dihydroisoquinolin-1-yl)-8-methylquinoline] | 0
CC1(C)Cc2cc(F)ccc2C(c2cnc3ccccc3c2)=N1 [Example 16, 3-(6-fluoro-3,3-dimethyl-3,4-dihydroisoquinolin-1-yl)quinoline] | 0
Cc1cccc2c1CC(C)(C)N=C2c1cnc2ccccc2c1 [Example 26, 3-(3,3,5-trimethyl-3,4-dihydroisoquinolin-1-yl)quinoline] | 0
CC1(C)Cc2c(cccc2-c2cccs2)C(c2cnc3ccccc3c2)=N1 [Example 32, 3-[5-(2-thienyl)-3,3-dimethyl-3,4-dihydroisoquinolin-1-yl]quinoline] | 0
CC1(C)Cc2c(cccc2-c2ccsc2)C(c2cnc3ccccc3c2)=N1 [Example 33, 3-[5-(3-thienyl)-3,3-dimethyl-3,4-dihydroisoquinolin-1-yl]quinoline] | 0
CON=C(C)c1cccc2c1CC(C)(C)N=C2c1cnc2ccccc2c1 [Example 36, 1-(3,3-dimethyl-1-quinolin-3-yl-3,4-dihydroisoquinolin-5-yl)ethanone=O-methyloxime] | 0
CCON=C(C)c1cccc2c1CC(C)(C)N=C2c1cnc2ccccc2c1 [Example 38, 1-(3,3-dimethyl-1-quinolin-3-yl-3,4-dihydroisoquinolin-5-yl)ethanone=O-ethyloxime] | 0
CCC1(C)Cc2ccccc2C(c2cnc3ccccc3c2)=N1 (stereo not shown) [Example 55, 3-(3-ethyl-3-methyl-3,4-dihydroisoquinolin-1-yl)quinoline] | 0
CCCC1(C)Cc2ccccc2C(c2cnc3ccccc3c2)=N1 (stereo not shown) [Example 57, 3-(3-methyl-3-propyl-3,4-dihydroisoquinolin-1-yl)quinoline] | 0
CC(C)C1(C)Cc2ccccc2C(c2cnc3ccccc3c2)=N1 (stereo not shown) [Example 59, 3-(3-isopropyl-3-methyl-3,4-dihydroisoquinolin-1-yl)quinoline] | 0
CC(C)CC1(C)Cc2ccccc2C(c2cnc3ccccc3c2)=N1 (stereo not shown) [Example 60, 3-(3-isobutyl-3-methyl-3,4-dihydroisoquinolin-1-yl)quinoline] | 0
CC(C)CCC1(C)Cc2ccccc2C(c2cnc3ccccc3c2)=N1 (stereo not shown) [Example 62, 3-(3-isopentyl-3-methyl-3,4-dihydroisoquinolin-1-yl)quinoline] | 0
CCC1(CC)Cc2ccccc2C(c2cnc3ccccc3c2)=N1 [Example 63, 3-(3,3-diethyl-3,4-dihydroisoquinolin-1-yl)quinoline] | 0
FC(F)(F)C1(c2ccccc2)Cc2ccccc2C(c2cnc3ccccc3c2)=N1 (stereo not shown) [Example 74, 3-(3-trifluoromethyl-3-phenyl-3,4-dihydroisoquinolin-1-yl)quinoline] | 0
c1ccc2c(c1)CC1(CCCC1)N=C2c1cnc2ccccc2c1 [Example 80, 1′-quinolin-3-yl-4′H-spiro[cyclopentane-1,3′-isoquinoline]] | 0

Compound | degree of disease onset
Fc1cccc2c1CC1(CCCC1)N=C2c1cnc2ccccc2c1 [Example 81, 5′-fluoro-1′-quinolin-3-yl-4′H-spiro[cyclopentane-1,3′-isoquinoline]] | 0
Fc1ccc2c(c1)CC1(CCCC1)N=C2c1cnc2ccccc2c1 [Example 82, 6′-fluoro-1′-quinolin-3-yl-4′H-spiro[cyclopentane-1,3′-isoquinoline]] | 0
CC1CCC2(Cc3ccccc3C(c3cnc4ccccc4c3)=N2)C1 (stereo not shown) [Example 101, 1′-quinolin-3-yl-4′H-spiro[(3-methylcyclopentane)-1,3′-isoquinoline]] | 0
CC1(C)Cc2c(F)cccc2C(c2cnc3ccccc3c2)=N1.O=S(=O)(O)O [Example 104, 3-(5-fluoro-3,3-dimethyl-3,4-dihydroisoquinolin-1-yl)quinoline sulfate] | 0
CC1(C)Cc2c(F)cccc2C(c2cnc3ccccc3c2)=N1.O=[N+]([O-])O [Example 105, 3-(5-fluoro-3,3-dimethyl-3,4-dihydroisoquinolin-1-yl)quinoline nitrate] | 0
CC1(C)Cc2c(F)cccc2C(c2cnc3ccccc3c2)=N1.O=C(O)C(=O)O [Example 106, 3-(5-fluoro-3,3-dimethyl-3,4-dihydroisoquinolin-1-yl)quinoline oxalate] | 0
CON=Cc1cccc2c1CC(C)(C)N=C2c1cnc2ccccc2c1 [Example 117, 1-(3,3-dimethyl-1-quinolin-3-yl-3,4-dihydroisoquinolin-5-yl)methanone=O-methyloxime] | 0
CC1c2ccccc2C(c2cnc3ccccc3c2)=NC1(C)C (stereo not shown) [Example 119, 3-(3,3,4-trimethyl-3,4-dihydroisoquinolin-1-yl)quinoline] | 0
CC1(C)Cc2c(cccc2C(F)F)C(c2cnc3ccccc3c2)=N1 [Example 132, 3-(5-difluoromethyl-3,3-dimethyl-3,4-dihydroisoquinolin-1-yl)quinoline] | 0
CC1(C)N=C(c2cnc3ccccc3c2)c2ccc(F)cc2C1(C)C [Example 150, 3-(6-fluoro-3,3,4,4-tetramethyl-3,4-dihydroisoquinolin-1-yl)quinoline] | 0
Cc1cccc2c1C(C)(C)C(C)(C)N=C2c1cnc2ccccc2c1 [Example 160, 3-(3,3,4,4,5-pentamethyl-3,4-dihydroisoquinolin-1-yl)quinoline] | 0
c1ccc2c(c1)C(c1cnc3ccccc3c1)=NCC21CCC1 [Example 171, 1′-quinolin-3-yl-4′H-spiro[cyclobutane-1,4′-isoquinoline]] | 0
CC1(C)N=C(c2cnc3ccccc3c2)c2cccc(F)c2C1(C)O (stereo not shown) [Example 181, 3-(5-fluoro-4-hydroxy-3,3,4-trimethyl-3,4-dihydroisoquinolin-1-yl)quinoline] | 0
COC1(C)c2c(F)cccc2C(c2cnc3ccccc3c2)=NC1(C)C (stereo not shown) [Example 183, 3-(5-fluoro-4-methoxy-3,3,4-trimethyl-3,4-dihydroisoquinolin-1-yl)quinoline] | 0
CC1c2ccccc2C(c2cnc3ccccc3c2)=[N+]([O-])C1(C)C (stereo not shown) [Example 206, 3-(3,3,4-trimethyl-2-oxide-3,4-dihydroisoquinolin-1-yl)quinoline] | 0
CC1(C)Cc2c(F)cccc2C(c2cnc3ccccc3c2)=[N+]1[O-] [Example 208, 3-(5-fluoro-3,3-dimethyl-2-oxide-3,4-dihydroisoquinolin-1-yl)quinoline] | 0
CC1(C)c2ccc(F)cc2C(c2cnc3ccccc3c2)=[N+]([O-])C1(C)C [Example 210, 3-(7-fluoro-3,3,4,4-tetramethyl-2-oxide-3,4-dihydroisoquinolin-1-yl)quinoline] | 0

test system: gray mold (Botrytis cinerea); test: Tomato gray mold control test (preventive effects); assay type: in vivo; conditions: potted tomato (giant Fukuju variety), spraying liquid 300 ppm before spore inoculation, investigated 2 days after inoculation, levels 0 to 3
Procedure: Bulk drug was dissolved in a mixed solution of dimethylsulfoxide and methanol (volume ratio: 7/3), and spraying liquids containing 300 ppm of compounds of the present invention were uniformly sprayed onto potted test plants (tomato: giant Fukuju variety) in the second to third leaf stage. […], a suspension of pathogen spores were inoculated by spraying onto the pots in an inoculation room at a room temperature of 20 to 23° C. to promote the onset of disease. The degree of disease onset was investigated 2 days after inoculation. The test was carried out in duplicate.
Furthermore, the degree of disease onset was evaluated to one of four levels from 0 to 3 according to the criteria below by macroscopically observing the degree of disease onset of the test plants.
1: Degree of disease onset less than 40% of the untreated area
2: Degree of disease onset 40% to less than 80% of the untreated area
3: Degree of disease onset 80% or more

Compound | degree of disease onset
CC1(C)Cc2cc(Cl)ccc2C(c2cnc3ccccc3c2)=N1 [Example 20, 3-(6-chloro-3,3-dimethyl-3,4-dihydroisoquinolin-1-yl)quinoline] | 0
CC1(C)Cc2cc(Br)ccc2C(c2cnc3ccccc3c2)=N1 [Example 23, 3-(6-bromo-3,3-dimethyl-3,4-dihydroisoquinolin-1-yl)quinoline] | 0
CC(=NOc1ccccc1)c1cccc2c1CC(C)(C)N=C2c1cnc2ccccc2c1 [Example 44, 1-(3,3-dimethyl-1-quinolin-3-yl-3,4-dihydroisoquinolin-5-yl)ethanone=O-phenyloxime] | 0
CC1(C)Cc2c(ccc(Cl)c2Cl)C(c2cnc3ccccc3c2)=N1 [Example 53, 3-(5,6-dichloro-3,3-dimethyl-3,4-dihydroisoquinolin-1-yl)quinoline] | 0
Clc1ccc2c(c1)CC1(CCCCC1)N=C2c1cnc2ccccc2c1 [Example 92, 6′-chloro-1′-quinolin-3-yl-4′H-spiro[cyclohexane-1,3′-isoquinoline]] | 0
CC1c2c(F)cccc2C(c2cnc3ccccc3c2)=NC1(C)C (stereo not shown) [Example 120, 3-(5-fluoro-3,3,4-trimethyl-3,4-dihydroisoquinolin-1-yl)quinoline] | 0
CC1c2c(Cl)cccc2C(c2cnc3ccccc3c2)=NC1(C)C (stereo not shown) [Example 121, 3-(5-chloro-3,3,4-trimethyl-3,4-dihydroisoquinolin-1-yl)quinoline] | 0
CC1(C)N=C(c2cnc3ccccc3c2)c2cccc(Cl)c2C1(C)C [Example 123, 3-(5-chloro-3,3,4,4-tetramethyl-3,4-dihydroisoquinolin-1-yl)quinoline] | 0
